Experimental data reported in BindingDB's records for patent US10377770 (Novartis, 2019).

biological target: RAF proto-oncogene serine/threonine-protein kinase [Y340E,Y341E] (Human, UniProt P04049, Y340E/Y341E); assay: Biological Assays
Description: The activity of a compound according to the present invention can be assessed by well-known in vitro & in vivo methods. […] CRAF cDNA was subcloned as full length protein, with Y340E and Y341E activating mutations, into a baculovirus expression vector for Sf9 insect cell expression. h14-3-3 zeta cDNA was subcloned into a baculovirus expression vector for SF9 insect cell expression. Sf9 cells co-expressing both proteins were lysed and subjected to immobilized nickel chromatography and eluted with Imidazole. A second column (StrepII binding column) was used and eluted with desthiobiotin. Protein Tags were removed using Prescission enzyme and the protein was further purified using a flowthrough step to remove tags.C-Raf TR refers to a truncated C-Raf protein, a Δ1-324 deletion mutant. C-Raf FL refers to the full-length C-Raf protein.Full length MEK1 with an inactivating K97R ATP binding site mutation is utilized as a RAF substrate. The MEK1 cDNA was subcloned with an N-terminal (his)6 tag into a vector for E. Coli expression. The MEK1 substrate was purified from E. Coli lysate by nickel affinity chromatography followed by anion exchange. The final MEK1 preparation was biotinylated (Pierce EZ-Link Sulfo-NHS-LC-Biotin) and concentrated.Assay Materials: Assay buffer is 50 mM Tris, pH 7.5, 15 mM MgCl2, 0.01% Bovine Serum Albumin (BSA) and 1 mM dithiothreitol (DTT); Stop buffer is 60 mM ethylenediaminetetraacetic acid (EDTA) and 0.01% Tween 20; b-Raf (V600E), active; biotinylated Mek, kinase dead; Alpha Screen detection kit (available from PerkinElmer , #6760617R); Anti phospho-MEK1/2 (available from Cell Signaling Technology, Inc. #9121); 384 well low volume assay plates (White Greiner plates).Assay conditions: b-Raf (V600E) approximately 4 pM; c-Raf approximately 4 nM; biotinylated Mek, kinase dead approximately 10 nM; ATP 10 μM for BRAF (V600E) and 1 μM for CRAF; Pre-incubation time with compounds 60 minutes at room temperature; Reaction time 1 or 3 hours at room temperature.Assay protocol: Raf and biotinylated Mek (kinase dead) were combined at 2× final concentrations in assay buffer (50 mM Tris, pH 7.5, 15 mM MgCl2, 0.01% BSA and 1 mM DTT) and dispensed […] per well in assay plates (Greiner white 384 well assay plates #781207) containing […] of 40× of a Raf kinase inhibitor test compound diluted in 100% DMSO. The plate was incubated for 60 minutes at room temperature. The Raf kinase activity reaction was started by the addition of […] per well of 2×ATP diluted in assay buffer. After 3 hours (b-Raf(V600E)) or 1 hour (c-Raf). The reactions were stopped and the phosphorylated product was measured using a rabbit anti-p-MEK (Cell Signaling, #9121) antibody and the Alpha Screen IgG (ProteinA) detection Kit (PerkinElmer #6760617R), by the addition of […] to the well of a mixture of the antibody (1:2000 dilution) and detection beads (1:2000 dilution of both beads) in Stop/bead buffer (25 mM EDTA, 50 mM Tris, pH 7.5, 0.01% Tween20). The additions were carried out under dark conditions to protect the detection beads from light. A lid was placed on top of the plate and incubated for 1 hour at room temperature, after which the luminescence was read on a PerkinElmer Envision instrument.

RAF proto-oncogene serine/threonine-protein kinase [Y340E,Y341E], sequence (P04049 whole entry Y340E/Y341E, the tested form may be a part): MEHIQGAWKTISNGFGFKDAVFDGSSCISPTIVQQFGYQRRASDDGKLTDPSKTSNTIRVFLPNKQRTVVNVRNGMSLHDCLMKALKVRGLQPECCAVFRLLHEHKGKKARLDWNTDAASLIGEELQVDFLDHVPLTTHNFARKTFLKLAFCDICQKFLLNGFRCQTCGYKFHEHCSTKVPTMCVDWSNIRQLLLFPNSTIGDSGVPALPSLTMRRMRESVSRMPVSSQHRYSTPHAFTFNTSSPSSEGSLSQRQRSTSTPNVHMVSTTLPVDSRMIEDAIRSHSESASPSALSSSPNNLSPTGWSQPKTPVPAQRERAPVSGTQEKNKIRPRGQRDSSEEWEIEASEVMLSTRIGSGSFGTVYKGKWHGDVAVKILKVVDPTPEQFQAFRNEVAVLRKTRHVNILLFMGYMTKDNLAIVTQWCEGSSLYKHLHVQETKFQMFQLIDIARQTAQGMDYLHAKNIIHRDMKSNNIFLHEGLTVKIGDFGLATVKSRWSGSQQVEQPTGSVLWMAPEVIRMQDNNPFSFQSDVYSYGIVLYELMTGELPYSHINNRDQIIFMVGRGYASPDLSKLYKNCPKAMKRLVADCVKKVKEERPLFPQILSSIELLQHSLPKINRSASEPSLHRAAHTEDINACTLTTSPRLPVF

CCN1C(=O)[C@@H]2COCCN2c2cc(-c3cc(NC(=O)c4ccnc(C(F)(F)F)c4)ccc3C)nnc21 [US10377770, Example 133] was tested. Which IC50 did it give?
The IC50 was 11 pM.

Which IC50 does the source give for Cc1ccc(NC(=O)c2ccnc(C(F)(F)F)c2)cc1-c1cnc2c(c1)N1CCOCC1C1(COC1)C2 (racemic) [US10377770, Example 153] here?
Its IC50 is 5 pM.

How did the IC50 turn out when Cc1ccc(NC(=O)c2cccc(C(F)(F)F)n2)cc1-c1ccc2c(c1)N1CCOC[C@H]1[C@](F)(CO)C2 [US10377770, Example 389] was run?
Its IC50 is 500 pM.

Cc1ccc(NC(=O)c2ccnc(C(C)(F)F)c2)cc1-c1cnc2c(c1)C1CCOCCC1C(=O)N2CCO (centres undefined) [US10377770, Example 286] was tested. Which IC50 did it give?
Its IC50 is less than 100 pM.

How did the IC50 turn out when Cc1ccc(NC(=O)c2ccnc(C(F)(F)F)n2)cc1-c1ccc2c(c1)N1CCOC[C@H]1[C@](F)(CO)C2 [US10377770, Example 388] was run?
The IC50 was 400 pM.

Which IC50 does the source give for CCN1C(=O)[C@H]2COCCN2c2cc(-c3cc(NC(=O)c4ccnc(C(F)(F)F)c4)ccc3C)nnc21 [US10377770, Example 134] here?
Its IC50 is 16 pM.

Cc1ccc(NC(=O)c2ccnc(C(F)(F)F)c2)cc1-c1cnc2c(c1)[C@@H]1CCOC[C@H]1C(=O)N2CCO [US10377770, Example 258] was tested. Which IC50 did it give?
Its IC50 is less than 100 pM.

CCN1C(=O)OC2COCCC2c2cc(-c3cc(NC(=O)c4cnnc(C(F)(F)F)c4)ccc3C)cnc21 (centres undefined) [US10377770, Example 301] was tested. Which IC50 did it give?
Its IC50 is less than 100 pM.

Cc1ccc(NC(=O)c2ccnc(C(F)(F)F)c2)cc1-c1cnc2c(c1)C1CCOCCC1C(=O)N2CCO (centres undefined) [US10377770, Example 284] was tested. Which IC50 did it give?
Its IC50 is less than 100 pM.

Cc1ccc(NC(=O)c2ccnc(C(F)(F)F)c2)cc1-c1ccc2c(c1)N1CCOC[C@@H]1[C@@](CO)(CF)C2 [US10377770, Example 405] was tested. Which IC50 did it give?
Its IC50 is 200 pM.

Cc1ccc(NC(=O)c2ccnc(C(F)(F)F)c2)cc1-c1cnc2c(c1)N1CCOC[C@H]1CC(=O)N2CCO [US10377770, Example 333] was tested. Which IC50 did it give?
The IC50 was less than 100 pM.

Cc1ccc(NC(=O)c2ccnc(C(C)(F)F)c2)cc1-c1cnc2c(c1)[C@@H]1CCOC[C@H]1C(=O)N2CCO [US10377770, Example 267] was tested. Which IC50 did it give?
Its IC50 is less than 100 pM.

How did the IC50 turn out when CCN1C(=O)OC2COCCC2c2cc(-c3cc(NC(=O)c4ccnc(C(F)(F)F)c4)ccc3C)cnc21 (centres undefined) [US10377770, Example 297] was run?
The IC50 was 900 pM.

For CCN1C(=O)[C@@H]2COCC[C@H]2c2cc(-c3cc(NC(=O)c4cnnc(C(F)(F)F)c4)ccc3C)cnc21 [US10377770, Example 257], which IC50 is on record?
The IC50 was less than 100 pM.
